Results on twelve compounds are retold here after US10736343B2, “Antimicrobial formulations with pelargonic acid” (ANITOX CORPORATION, priority 2011, dated 2020).

≈ marks a conversion by molar mass, not a printed value. Like-named read-outs stand apart in the source and are kept apart here.

One data set relates to yeast (10^5 CFU/bottle). Conditions: cited from earlier work.
Data set [1] deals with Salmonella typhimurium. In words: In vitro test of aldehyde / hexenal / pelargonic acid formulations against Salmonella typhimurium suspension (Example 7). Type of data set: cell-based. The settings on record: for ability to replace trans-2-hexenal (in words): At both 5% and 10% pelargonic acid. How it is done:
Seven aldehydes (butyraldehyde, citral, undecylenic aldehyde, decadienal, cinnamaldehyde, decanal and furfural) were blended with trans-2-hexenal, pelargonic acid, propionic acid and acetic acid as presented in Table 9. A 20% (X−1) and a 25% (F18) hexanal: organic acid product were included as positive controls. […] Solutions were vortexed for 10 seconds to uniformly mix the solution. There were three replicate tubes per treatment. […] The solutions were vortexed, incubated at room temperature for 24 hours and then plated on XLT-4 agar for 48 hours before counting Salmonella colonies.

A further data set has as its system M. gypseum. Conditions: cited from earlier work.
The test system of data set [2] is Salmonella typhimurium. Briefly: In vitro test of five formulations against Salmonella typhimurium suspension (Example 3). It is filed as cell-based. Conditions: pelargonic acid at 10% of formula. The protocol: Formulations were added to test tubes at concentrations of 0.01% and 0.05%. Solutions were vortexed for 10 seconds to ensure mixing. There were three replicate tubes per treatment.
A suspension of Salmonella typhimurium (10^4 cfu/ml) was added to three test tubes containing the different dilutions of each formulation. The tubes were vortexed, incubated at room temperature for 24 hours and then the solution was plated on SMA (Standard Methods Agar) for 48 hours before counting Salmonella colonies.

Data set [3] has as its system Salmonella typhimurium. Briefly: Residual activity in treated poultry mash feed contaminated after treatment (Example 6). Type of data set: cell-based. Conditions: for % Reduction at 13 Days: feed contaminated 13 days post treatment. The protocol:
Formula 1 from Example 3 composed of 25% trans-2-hexenal, 5% pelargonic acid and 70% aqueous organic acids was compared to trans-2-hexenal for residual activity in feed. Poultry mash feed was treated with 0.1, 0.25, 0.5 or 1.0 kg/ton of hexenal compared to 1 kg/ton of the hexenal: pelargonic acid combination product (0.25 kg/ton of hexenal), At 1, 6 and 13 days post treatment, feed was contaminated with a meat and bone meal inoculum of Salmonella typhimurium at a level of 10^3 cfu/g of feed. After 24 hours, 10 g of subsamples of the untreated and treated feed were suspended in 90 ml Butterfield buffer. Dilutions were plated on XLT-4 agar and incubated at 37° C. for 48 hours before counting Salmonella colonies.

The subject of data set [4] is Salmonella typhimurium (ATCC #14028). In words: Salmonella typhimurium suspension in test tubes with formaldehyde and/or pelargonic acid, plate count (Example 1). Type of data set: cell-based. The protocol:
Solutions were vortexed for 10 seconds to ensure mixing. There were three replicate tubes per treatment. A suspension of Salmonella typhimurium (10^3 cfu/ml, ATCC #14028) was added to three test tubes containing each formulation. The solutions were vortexed, incubated at room temperature for 24 hours plated on SMA (Standard Methods Agar) for 24 hours before counting Salmonella colonies.

Data set [5] has the same test system. Briefly: Salmonella typhimurium suspension in test tubes with formaldehyde and/or pelargonic acid, plate count (Example 2). Type of data set: cell-based. How it is done:
Solutions were vortexed for 10 seconds to ensure mixing. There were three replicate tubes per treatment. A suspension of Salmonella typhimurium (10^3 cfu/ml, ATCC #14028) was added to three test tubes containing each formulation. The solutions were vortexed, incubated at room temperature for 24 hours and plated on SMA (Standard Methods Agar) for 24 hours before counting Salmonella colonies.

A further data set deals with parasite C. irritans. Conditions: cited from earlier work.
The subject of a further data set is pears and apples. The settings on record: 12.5 μL/L, twenty four hours to seven days exposure; cited from earlier work.
The subject of the next data set is Penicillium expansum. Conditions: cited from earlier work.
The conditions of data set [6]: rat, in vivo; cited from earlier work.
Data set [7] relates to A. flavus, P. notatum, A. alternate, F. oxysporum, Cladosporium species, B. subtilis and A. tumerfaciens. Conditions: cited from earlier work.
Another data set concerns E. coli. Conditions: cited from earlier work.
The conditions of data set [8]: rat, cited from earlier work.
The subject of another data set is mold. The settings on record: 0.86 or 1.71 mmol per 1.1 L container for 2 weeks; cited from earlier work.
The test system of a further data set is Phoma mycelium. The settings on record: cited from earlier work.
The test system of data set [9] is Helicobacter pylori and S. cholerasuis. Conditions: cited from earlier work.
The subject of data set [10] is apricots, peaches and nectarines. Conditions: cited from earlier work.
In a further data set the test system is P. syringae pathovars. Conditions: cited from earlier work.
In data set [11] the test system is B. cereus, S. typhimurium, V. parahaemolyticus, L. monocytogenes, S. aureus and E. coli O157:H7. Conditions: cited from earlier work.
For data set [12], the system named is Staphylococcus aureus, E. coli and Salmonella typhimurium. The settings on record: cited from earlier work.
Where [13] appears, read: At 5% pelargonic acid, aldehyde by itself.
[14] abbreviates: At 10% pelargonic acid, 20% aldehyde.
The mark [15] stands for this setting: formaldehyde 0 %, pelargonic acid 0.00125 %.
The mark [16] stands for this setting: formaldehyde 0 %, pelargonic acid 0.0025 %.
The mark [17] stands for this setting: formaldehyde 0.00312 %, pelargonic acid 0 %.
[18] abbreviates: formaldehyde 0.00625 %, pelargonic acid 0 %.
The mark [19] stands for this setting: formaldehyde 0.0125 %, pelargonic acid 0 %.
Setting [20] is: formaldehyde 0.025 %, pelargonic acid 0 %.

Regarding `CC(C)=CCCC(C)=CC=O` [citral], the “concentration equivalent to 25 ppm trans-2-hexenal and thermal treatment” value in the data set on yeast (10^5 CFU/bottle) is recorded as 100-120 ppm. The “effectiveness compared with trans-2-hexenal (in words)” value is listed as “not as effective as trans-2-hexenal” in the data set with Salmonella typhimurium [1] (setting [13]) and “as effective as 20% trans-2-hexenal” in the data set on Salmonella typhimurium [1] (setting [14]). In the data set on Salmonella typhimurium [1], the “ability to replace trans-2-hexenal (in words)” value (“ability” for short) was “can partially replace trans-2-hexenal”.

As to `CCCCCCCCCC(=O)O` [capric acid], the “minimum inhibitory concentration (MIC)” value in the data set with M. gypseum (in liquid media) was 75 µg/mL (≈ 435 µM); with M. gypseum (on solid media), 20 µg/mL (≈ 116 µM).

Turning to `CCCCCCCCC(=O)O` [Pelargonic acid, Pelargonic acid (nonanoic acid)], the “effect on efficacy of trans-2-hexenal (in words)” value in the data set on Salmonella typhimurium [2] was “increases the efficacy of trans-2-hexenal”. Besides, in the data set with Salmonella typhimurium [3] (addition of pelargonic acid (5%) to trans-2-hexenal), the “effectiveness against Salmonella versus trans-2-hexenal alone (in words)” value was “better effectiveness against Salmonella than trans-2-hexenal by itself”. In addition, the “bactericidal effect (in words)” value in data set [4] (at the highest dose tested) was “not bactericidal”. The Salmonella % reduction is listed as 0% in data set [4] (formaldehyde 0 %, pelargonic acid 0.000312 %); 0% in [4] (formaldehyde 0 %, pelargonic acid 0.000625 %); 0% in data set [4] (setting [15]); 0% in data set [4] (setting [16]); 2.1% in data set [5] (setting [15]); 8.8% in data set [5] (setting [16]). Further, the Salmonella % reduction was 96.5% in [5] (formaldehyde 0 %, pelargonic acid 0.005 %) and 100% in data set [5] (formaldehyde 0 %, pelargonic acid 0.01 %). The “effect on the effectiveness of formaldehyde (in words)” value in data set [4] (pelargonic acid at 0.00125 and 0.0025%) is on record as “did appear to increase the effectiveness of formaldehyde”. Also, in data set [5] (pelargonic acid 0.00125% and 0.0025% mixed with formaldehyde), the “effect on bactericidal efficacy of formaldehyde (in words)” value is on record as “the bactericidal efficacy of formaldehyde was improved”. Also, in data set [5] (pelargonic acid alone at 0.00125% and 0.0025%), the “impact on Salmonella reduction (in words)” value is “did not have a significant impact on Salmonella reduction”. Also, the “potentiation of aldehyde efficacy (in words)” value in the data set with Salmonella typhimurium [1] was “potentiates the efficacy of each individual aldehyde and aldehyde combination”. In addition, the “control of parasite growth (in words)” value with parasite C. irritans is “effective in controlling the growth”. The “minimum inhibitory concentration (MIC)” value with M. gypseum (in liquid media) was 50 µg/mL (≈ 316 µM); with M. gypseum (on solid media) it was 40 µg/mL (≈ 253 µM).

In the case of `CCC/C=C/C=O` [trans-2-hexenal], the “% Reduction at 13 Days” value with Salmonella typhimurium [3] (0.10 kg/ton hexenal) stood at 0%; in the data set with Salmonella typhimurium [3] (0.25 kg/ton hexenal), 0%; in the data set with Salmonella typhimurium [3] (0.50 kg/ton hexenal), 77.4%; in the data set on Salmonella typhimurium [3] (1.00 kg/ton hexenal), 87.1%. For the same compound, the “fruit quality (in words)” value in the data set with pears and apples is listed as “did not affect fruit appearance, color, firmness, soluble solids content or titratable acidity”. In addition, the “concentration effective on controlling” value in the data set on Penicillium expansum is recorded as 12.5 μL/L. Further, the “concentration necessary to stabilize beverages” value in the data set on yeast (10^5 CFU/bottle) (beverages not thermally treated) is 35 ppm. Moreover, the “concentration controlling yeast in beverages” value in the data set on yeast (10^5 CFU/bottle) (with thermal treatment (56° C. for 20 min)) is reported as 25 ppm. Moreover, the “toxic levels in rats relative to normal intake by humans” value in data set [6] was 30 times. Moreover, the “concentration that completely inhibited the growth” value in data set [7] was 8 ng/L air. Also, the figures for the “concentration that completely inhibited proliferation” value with E. coli and with P. syringae pathovars were 930 micrograms/L of air and 570 ug/L of air, respectively. Also, the “body weight and intake (in words)” value in [8] (4000 ppm in diet, 13 wk) was “reduction in body weight and intake, but it was not significant”. Further, the “hematological parameters or organ weights (in words)” value in data set [8] (dietary levels 260, 640, 1600 or 4000 ppm for 13 wk) is reported as “did not induce any changes in hematological parameters or organ weights”. Moreover, the “control of mold (in words)” value in the data set with mold is listed as “showed promise for control of mold”. Also, the “concentration effective at inhibiting growth” value in the data set with Phoma mycelium was 250 µg/mL. Besides, the minimum biocidal activity in [9] is 800 µg/mL. Moreover, the minimum inhibitory activity in [9] is 400 µg/mL. The “phytotoxicity (in words)” value is “not phytotoxic” in data set [10] (apricots); “phytotoxic” in data set [10] (peaches and nectarines at 40 μL/L). The effective concentration in [11] was 247 mg/L.

For the compound `CCCCCCCCCC=O` [decanal], the “ability” value with Salmonella typhimurium [1] is “can replace trans-2-hexenal”.

Consider `CC/C=C/CC=O` [(3E)-hexenal], for which the “level effective in controlling” value in [12] was 3 to 30 µg/mL.

For the compound `C=CCCCCCCCCC=O` [undecylenic aldehyde], in the data set with Salmonella typhimurium [1], the “ability” value is recorded as “can replace trans-2-hexenal”.

Take `CCCC=O` [butyraldehyde]: the “effectiveness compared with trans-2-hexenal (in words)” value in the data set on Salmonella typhimurium [1] (setting [13]) is listed as “not as effective as trans-2-hexenal”; in the data set with Salmonella typhimurium [1] (setting [14]), “as effective as 20% trans-2-hexenal”. For the same compound, the “ability” value in the data set with Salmonella typhimurium [1] is given as “can partially replace trans-2-hexenal”.

As for `CCCCCC=CC=CC=O` [decadienal aldehyde, 2-4-decadienal], the “ability” value in the data set on Salmonella typhimurium [1] is on record as “can replace trans-2-hexenal”.

For `O=CC=Cc1ccccc1` [cinnamaldehyde], in the data set on Salmonella typhimurium [1], the “ability” value is recorded as “can replace trans-2-hexenal”.

In the case of `O=Cc1ccco1` [furfural], the “ability” value in the data set with Salmonella typhimurium [1] is “can replace trans-2-hexenal”.

As to `C=O` [Formaldehyde], the Salmonella % reduction in [4] (setting [17]) stood at 17.3%; in data set [4] (setting [18]), 39.3%; in [4] (setting [19]), 59.0%; in data set [4] (setting [20]) it was 90.8%; in [5] (setting [17]) it was 17.7%; in [5] (setting [18]), 41.0%. For the same compound, the Salmonella % reduction in data set [5] (setting [19]) is recorded as 50.5%; in data set [5] (setting [20]), 88.3%.
